We go through 27 compounds from patent publication US5420128A, “Pyrimidine derivatives, method of manufacturing the same, and androgen inhibitor” (Otsuka Pharmaceutical Co., Ltd., priority 1990, dated 1995).

Molecules are shown by their SMILES. Where only a bound is given, the exact number is not on record here.

The experiment has as its target T1, rat prostate androgen receptor (Rattus norvegicus, UniProt P15207).
T1 construct: the supernatant was obtained as cytoplasm fraction; from tissue; host or cells: cytosol (105000×g supernatant) of rat ventral prostate, 24 hours after castration
T1 sequence (P15207 1-902): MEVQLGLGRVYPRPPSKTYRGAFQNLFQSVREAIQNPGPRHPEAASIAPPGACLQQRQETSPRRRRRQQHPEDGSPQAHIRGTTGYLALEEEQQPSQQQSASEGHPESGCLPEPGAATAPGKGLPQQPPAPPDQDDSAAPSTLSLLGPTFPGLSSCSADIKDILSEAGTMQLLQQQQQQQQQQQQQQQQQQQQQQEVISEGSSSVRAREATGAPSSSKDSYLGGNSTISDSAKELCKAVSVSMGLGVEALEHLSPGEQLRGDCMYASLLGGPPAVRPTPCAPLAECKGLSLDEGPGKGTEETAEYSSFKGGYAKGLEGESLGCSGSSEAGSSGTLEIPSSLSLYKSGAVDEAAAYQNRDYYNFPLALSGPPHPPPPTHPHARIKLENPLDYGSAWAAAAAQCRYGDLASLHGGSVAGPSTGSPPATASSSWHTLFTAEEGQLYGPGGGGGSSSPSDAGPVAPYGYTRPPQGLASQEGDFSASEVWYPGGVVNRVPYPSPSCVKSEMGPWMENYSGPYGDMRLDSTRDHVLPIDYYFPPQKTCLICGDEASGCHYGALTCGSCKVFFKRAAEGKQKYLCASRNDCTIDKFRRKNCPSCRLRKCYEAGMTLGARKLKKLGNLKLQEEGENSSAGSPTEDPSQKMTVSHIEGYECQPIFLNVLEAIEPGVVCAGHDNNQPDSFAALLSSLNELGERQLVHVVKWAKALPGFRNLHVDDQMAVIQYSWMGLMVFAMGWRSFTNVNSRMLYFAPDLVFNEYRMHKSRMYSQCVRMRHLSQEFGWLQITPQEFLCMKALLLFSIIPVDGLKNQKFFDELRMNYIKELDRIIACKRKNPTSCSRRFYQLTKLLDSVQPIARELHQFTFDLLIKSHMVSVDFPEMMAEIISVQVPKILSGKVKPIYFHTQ
Nature of the experiment: inhibitory activity on binding of ^3 H-mibolerone on rat prostate androgen receptor. The settings on record: ^3 H-mibolerone 1 nM, triamcinolone acetonide 5 μM, rat ventral prostate cytosol, 20 hours at 0° C.; read-out: Inhibitory activity on mibolerone specific binding [IC50 (M)].
Experimental: B. Measurement of inhibitory activity on binding of ^3 H-mibolerone on rat prostate androgen receptor
(1) Preparation of cytosol from rat prostate
The rat was sacrificed 24 hours after castration, and the ventral lobe of prostate was removed, and was gently homogenized, in ice-cooling water bath, at first by using Polytron and then using Potter type homogenizer, in three-fold amount of buffer solution A (1.5 mM EDTA, 2 mM dithiothreitol, 10 mM molybdate sodium, 10 % by volume of glycerol, 10 mM NaF, 25 mM phosphate sodium, pH 7.2). The obtained homogenate was filtrated through double gauze, and centrifuged at 105000×g for 60 minutes at 4° C., and the supernatant was obtained as cytoplasm fraction.
(2) Measurement of specific binding of ^3 H-mibolerone on prostate cytoplasm androgen receptor
To the cytoplasm fraction obtained in (1), ^3 H-mibolerone (87.0 Ci/mmol) was added, so that a final concentration is adjusted to 1 nM, and at the same time, in order to inhibit binding of ^3 H-mibolerone to progestin receptor, triamsinolone acetonide was added to a final concentration of 5 μM, and the final volume was adjusted to 0.4 ml with buffer solution A, and the reaction mixture was incubated for 20 hours at 0° C. After incubation, 0.5 ml of 60% hydroxylapatite slurry (washed and equilibrate with a buffer solution B: 10 mM NaH2 P04, 20 mM tris-hydrochloric acid, pH 7.2) was added, and incubated for 10 minutes at 0° C., the solution was transferred onto a glass fiber filter, and washed five times with 5 ml portions of buffer solution B containing 0.1% (weight/volume) of Triton X-100, to remove free ^3 H-mibolerone. This glass fiber was transferred into vial, and 10 ml of aquasol-2 was added, and the radioactivity was measured, and the total binding amount of ^3 H-mibolerone on prostate cytoplasm androgen receptor was determined.
The nonspecific binding amount was determined similarly by adding an unlabeled 5α-DHT in the reaction solution to a final concentration of 1 μM. The difference between the total binding amount and nonspecific binding amount was determined as the specific binding amount on the androgen receptor.
(3) Inhibitory activity of sample compounds on ^3 H-mibolerone specific binding
The compounds obtained in the experiments were added simultaneously with ^3 H-mibolerone at different concentrations to incubate same as in (2), and the specific binding amount of 3H-mibolerone on androgen receptor was determined. Comparing this value with the value obtained in (2), the IC50 value of inhibitory activity of the compounds on ^3 H-mibolerone specific binding was determined.
As a reminder, the IC50 is the point on the concentration scale where inhibition reaches its midpoint. Consider `O=C(Nc1cc(Cl)c(Cl)c(Cl)c1)c1cnc2c(-c3ccc(Sc4ccccc4)cc3)cnn2c1O` [Example 45, 7-Hydroxy-3-(4-phenylthiophenyl)-6-(N-3,4,5-trichlorophenyl)carbamoylpyrazolo[1,5-a]pyrimidine], for which the IC50 turned out to be 4e-07 M. Under `CC(C)(C)NC(=O)c1cnc2c(-c3ccc(Sc4ccccc4)cc3)cnn2c1O` [Example 46, 7-Hydroxy-3-(4-phenylthiophenyl)-6-(N-t-butyl)carbamoylpyrazolo[1,5-a]pyrimidine] stands 1.7e-07 M; under `N#Cc1cnc2c(-c3ccc(Sc4ccccc4)cc3)cnn2c1O` [Example 47, 7-Hydroxy-6-cyano-3,(4-phenylthiophenyl)pyrazolo[1,5-a]pyrimidine], 5e-08 M. On to `c1ccc(Sc2ccc(-c3cnn4cccnc34)cc2)cc1` [Example 49, 3-(4-phenylthiophenyl)pyrazolo[1,5-a]pyrimidine], for which the IC50 is > 5e-06 M.

For `Cc1ccc(-c2cnc3c(-c4ccc(Sc5ccccc5)cc4)cnn3c2O)cc1` [Example 51, 7-Hydroxy-6-(4-methylphenyl)-3-(4-phenylthiophenyl)pyrazolo[1,5-a]pyrimidin], the IC50 was 3.4e-07 M. `COc1ccc(-c2cnc3c(-c4ccc(Sc5ccccc5)cc4)cnn3c2O)cc1` [Example 52, 7-Hydroxy-6-(4-methoxyphenyl)-3-(4-phenylthiophenyl)pyrazolo[1,5-a]pyrimidine]: the IC50 is 2.3e-07 M. In the case of `COc1ccccc1-c1cnc2c(-c3ccc(Sc4ccccc4)cc3)cnn2c1O` [Example 53, 7-Hydroxy-6-(2-methoxyphenyl)-3-(4-phenylthiophenyl)pyrazolo[1,5-a]pyrimidine], the IC50 was found to be 3e-07 M.

On to `COc1cccc(-c2cnc3c(-c4ccc(Sc5ccccc5)cc4)cnn3c2O)c1` [Example 54, 7-Hydroxy-6-(3-methoxyphenyl)-3-(4-phenylthiophenyl)pyrazolo[1,5-a]pyrimidine], for which the IC50 turned out to be 7.6e-07 M.

Take `Oc1c(-c2ccc(F)cc2)cnc2c(-c3ccc(Sc4ccccc4)cc3)cnn12` [Example 55, 7-Hydroxy, 6-(4-fluorophenyl)-3-(4-phenylthiophenyl)pyrazolo[1,5-a]pyrimidine]: the concentration for half-maximal inhibition (IC50) amounted to 6.6e-08 M. As for `Oc1c(-c2cccc(F)c2)cnc2c(-c3ccc(Sc4ccccc4)cc3)cnn12` [Example 56, 7-Hydroxy-6-(3-fluorophepyl)-3-(4-phenylthiophenyl)pyrazolo[1,5-a]pyrimidine], the IC50 turned out to be 1.2e-07 M. Under `Oc1c(-c2ccccc2F)cnc2c(-c3ccc(Sc4ccccc4)cc3)cnn12` [Example 57, 7-Hydroxy-6-(2-fluorophenyl)-3-(4-phenylthiophenyl)pyrazolo[1,5-a]pyrimidine] stands 1.45e-07 M. Under `CC(=O)OCCc1cnc2c(-c3ccc(Sc4ccccc4)cc3)cnn2c1O` [Example 59, 6-(2-Acetoxyethyl)-7-hydroxy-3-(4-phenylthiophenyl)pyrazolo[1,5-a]pyrimidine] stands 1.65e-07 M. Next, `OCCc1cnc2c(-c3ccc(Sc4ccccc4)cc3)cnn2c1O` [Example 60, 7-Hydroxy-6-(2-hydroxyethyl)-3-(4-phenylthiophenyl)pyrazolo[1,5-a]pyrimidine]: 3.9e-08 M. On to `Oc1ccccc1Cc1cnc2c(-c3ccc(Sc4ccccc4)cc3)cnn2c1O` [Example 61, 7-Hydroxy-6-(2-hydroxyphenylmethyl)-3-(4-phenylthiophenyl)pyrazolo[1,5-a]pyrimidine], for which the 50% inhibitory concentration (IC50) worked out at 1.6e-07 M. Under `Oc1cccc(Cc2cnc3c(-c4ccc(Sc5ccccc5)cc4)cnn3c2O)c1` [Example 62, 7-Hydroxy-6-(3-hydroxyphenylmethyl)-3-(4-phenylthiophenyl)pyrazolo[1,5-a]pyrimidine] stands 1.2e-07 M; under `Oc1ccc(Cc2cnc3c(-c4ccc(Sc5ccccc5)cc4)cnn3c2O)cc1` [Example 63, 7-Hydroxy-6-(4-hydroxyphenylmethyl)-3-(4-phenylthiophenyl)pyrazolo[1,5-a]pyrimidine], > 5e-06 M; under `Oc1ccccc1-c1cnc2c(-c3ccc(Sc4ccccc4)cc3)cnn2c1O` [Example 64, 7-Hydroxy-6-(2-hydroxyphenyl)-3-(4-phenylthiophenyl)pyrazolo[1,5-a]pyrimidine], 7.4e-07 M. Under `Oc1cccc(-c2cnc3c(-c4ccc(Sc5ccccc5)cc4)cnn3c2O)c1` [Example 65, 7-Hydroxy-6-(3-hydroxyphenyl)-3-(4-phenylthiophenyl)pyrazolo[1,5-a]pyrimidine] stands 1.4e-07 M; under `Oc1ccc(-c2cnc3c(-c4ccc(Sc5ccccc5)cc4)cnn3c2O)cc1` [Example 66, 7-Hydroxy-6-(4-hydroxyphenyl)-3-(4-phenylthiophenyl)pyrazolo[1,5-a]pyrimidine], 1.6e-07 M; under `CC(=O)c1cnc2c(-c3ccc(Sc4ccccc4)cc3)cnn2c1O` [Example 67, 7-Hydroxy-6-acetyl-3-(4-phenylthiophenyl)pyrazolo[1,5-a]pyrimidine], 3.4e-08 M.

As for `O=C(c1ccccc1)c1cnc2c(-c3ccc(Sc4ccccc4)cc3)cnn2c1O` [Example 68, 7-Hydroxy-6-benzoyl-3-(4-phenylthiophenyl)pyrazolo[1,5-a]pyrimidine], the IC50 turned out to be 1.3e-06 M. Regarding `O=C(c1cnc2c(-c3ccc(Sc4ccccc4)cc3)cnn2c1O)C(F)(F)F` [Example 69, 7-Hydroxy-6-trifluoroacetyl-3-(4-phenylthiophenyl)pyrazolo[1,5-a]pyrimidine], the IC50 stood at 8.8e-07 M. Regarding `CC(O)c1cnc2c(-c3ccc(Sc4ccccc4)cc3)cnn2c1O` (stereo not drawn) [Example 70, 7-Hydroxy-6-(1-hydroxyethyl)-3-(4-phenylthiophenyl)pyrazolo[1,5-a]pyrimidine], the concentration for half-maximal inhibition (IC50) is 1.55e-07 M. Next, `Oc1c(C(O)c2ccccc2)cnc2c(-c3ccc(Sc4ccccc4)cc3)cnn12` (stereo not drawn) [Example 71, 7-Hydroxy-6-(α-hydroxybenzyl)-3-(4-phenylthiophenyl)pyrazolo[1,5-a]pyrimidine]: 4.6e-07 M. Under `Oc1c(C(O)C(F)(F)F)cnc2c(-c3ccc(Sc4ccccc4)cc3)cnn12` (stereo not drawn) [Example 72, 7-Hydroxy-6-(1-hydroxy-2,2,2-trifluoroethyl)-3-(4-phenylthiophenyl)pyrazolo[1,5-a]pyrimidine] stands 1.6e-07 M. Next, `COc1ccc(-c2cnc3c(-c4ccc(Sc5ccccc5)cc4)cnn3c2O)cc1Br` [Example 73, 6-(3-bromo-4-methoxyphenyl)-7-hydroxy-3-(4-phenylthiophenyl)pyrazolo[1,5-a]pyrimidine]: > 5e-06 M; `Cc1cc(-c2cnn3c(O)ccnc23)ccc1Sc1ccccc1` [Example 76, 7-Hydroxy-3-(3-methyl-4-phenylthiophenyl)pyrazolo[1,5-a]pyrimidine]: 2.3e-08 M.
